Consider 17 compounds from patent US20260191817A1, “FIBROBLAST MODULATORS IN STROMA-RICH TUMORS” (UNIVERSITEIT GENT, priority 2022, published 2026).

Assay [1] relates to human invasive MCF-7/6 mammary carcinoma cells. The experiment in a line: Chick heart invasion (CHI) assay with MCF-7/6 aggregates. In kind it is cell-based. The note with it: MCF7/6, 192 h, lowest concentration at which an anti-invasive effect (histological grade I or II) was observed, 8 days, read-out: Lowest active concentration. How it is done:
Chick heart invasion assays were performed as described earlier (Bracke et al. 2014). Precultured heart fragments of 9-day-old chicken embryos were confronted with MCF-7/6 aggregates on top of a semi-solid agar at 37° C. overnight, after which the confronting pairs were cultured in suspension for 8 days at 37° C., 10% CO2 in presence or absence of a test compound (in duplo). This procedure can also be performed with aggregates of 4T1-Luc cells, for which the suspension culture of the confronting pairs is performed for 3.5 days. All compounds were evaluated at 1 μM and 100 nM; depending on the outcome higher or lower concentrations were subsequently evaluated. Upon fixation in Bouin-Hollande, the cultures were dehydrated and embedded in paraffin. Sections of the confrontation cultures were stained with hematoxylin-eosin are blinded and scored by a trained person (Bracke et al., 2014).
In the chick heart invasion assay cancer cells are confronted with a fragment of normal tissue, so as not to neglect the contribution of the host tissue in the micro-ecosystem that governs tumor behavior. As such, precultured heart tissue fragments (PHFs), dissected from 9-day-old chicken embryos, may be confronted with aggregates of human invasive MCF-7/6 mammary carcinoma cells or other cells in the presence of a certain concentration of a test compound. After eight days for MCF-7/6, or another period depending on the cell type, the interaction between the cancer cells and the PHF is evaluated histologically and classified along a 5-grades subjective scale (Bracke et al. 2014). Grades III and IV are typical for invasion, while grades 0, I and II correspond to absence of invasion. Compounds that inhibit invasion of confronting cancer cells i.e. from III/IV to 0/I/II, are determined as anti-invasive. Possible alternative assays generally known in the art are the type I collagen invasion assay, wound healing assay and the matrigel invasion assay.
The chick heart invasion (CHI) assay is a phenotypic assay that confronts precultured heart tissue fragments (PHFs, ‘normal tissue’), obtained from 9-day-old chicken embryos, with aggregates of human invasive MCF-7/6 mammary carcinoma cells (Bracke et al. 2014). In the control situation, the MCF-7/6 cells encircle, invade and destroy the PHF over an 8-day period. Invasion in this assay is defined as the progressive occupation and destruction of the PHF by the MCF-7/6 cells. Three-dimensional reconstruction of this interaction is obtained by microscopic analysis of all consecutive histological sections of the culture. The read-out is an invasion score according to a 5-grades histological scale.
The CHI closely reproduces the temporal, spatial and histological invasion patterns in man. The co-culture set-up probes for effects on both tumor cells and host tissue, and thus interrogates potential pharmacological targets in either interaction partner. Its use of histological evaluation allows discerning anti-invasive action from cytotoxicity or other effects.
We have submitted flavones B1-B4, flavanones B5-B8 and the intermediate 2′-hydroxychalcones A9, All and A12 to the chick heart invasion assay using MCF-7/6 aggregates. All compounds were evaluated at 1 μM and 100 nM; depending on the outcome higher or lower concentrations were subsequently evaluated. […] This table also includes CHI data on chalcones A1, A2 and A5.

The next assay relates to 13B2 hTERT breast CAFs. The experiment in a line: AFM spheroid stiffness, 13B2 hTERT breast CAFs. In kind it is cell-based, human. The conditions noted are these: 48 h during spheroid formation; for Young's modulus / spheroid stiffness: 1 μM; for spheroid stiffness: 10 μM. An excerpt:
(§1) It is well established that an increased tumor and ECM stiffness is associated with a negative prognosis as it promotes tumor growth, progression, therapy resistance, immunosuppression and metastasis. Stiffness is chiefly regulated by the action of the CAFs in the TME. Stiffness modulation is, therefore, a fitting read-out of activity in a screen for CAF modulators. To assess stiffness modulation, the stiffness of spheroids of CAF cells treated with test compounds was interrogated using atomic force microscopy (AFM) indentation and compared with untreated cells. AFM measurement of the stiffness (elasticity) of cells and spheroids is a technique well-known to those skilled in the art. AFM measures the force required to create a given deflection, this read-out is also known as the Young's modulus. AFM is widely used in biology and cancer research: altered physicochemical properties of live cells serve as a read-out of altered complex physiological processes.
(§2) U-shaped, 384-well ULA plates (cat. no. MS-9384UZ, S-bio) were seeded with a suspension of cell-specific culture media with cells. Cells were allowed to form spheroids for an appropriate time under treatment conditions before use in experiments. Cell culture dishes (cat. no. 734-2814, VWR) were filled with collagen gel and placed at 37° C. for an appropriate time to allow solidification. For each condition, spheroids were pooled in one cell culture dish. The medium was removed (stored at 37° C.) to promote attachment of the bottom of each spheroid to the collagen gel. The cell culture dishes were incubated at 37° C. After the incubation period, the stored medium was carefully (prevent detachment of spheroids) added to the dishes.
(§3) Mechanical measurements were performed using an atomic force microscope. To indent the spheroids an in-house made colloidal probe was used. Force curves were collected using an appropriate setpoint and probe speed (depending on the stiffness of the spheroids). On each spheroid multiple force curves were collected. Collected curves were then processed using the JPK DP software. Young's modulus was extracted from the force curves. All experiments were performed in biological triplicate.
(§4) To generate 3D cultures mimicking the complexity and pathophysiology of in vivo tumors, spheroids were used (cfr. point 4). Spheroids are considered to better simulate cellular heterogeneity, nutrient and oxygen gradients, cell-cell interactions, cell-matrix interactions, gene expression profiles, stromal interactions, therapeutic responses, multicellular resistance, drug penetration and anti-apoptotic signaling.

Assay [2] concerns primary glioblastoma (GBM) cells. In words: AFM spheroid stiffness, primary glioblastoma cells. The format is cell-based, human. The note with it: 10 μM, 48 h. How it is done:
(§5) Selectivity for CAFs with respect to normal fibroblasts and other cell types was assessed by performing an identical experiment with normal fibroblasts and other cell types, where compounds were considered selective for CAFs if they only modulate CAF stiffness.
as §2, §3, §4

Assay [3] concerns MCF-7/6 breast cancer cells. In words: AFM spheroid stiffness, MCF-7/6 breast cancer cells. The format is cell-based, human. The note with it: 10 μM, 48 h. How it is done: as §5, §2, §3, §4
Assay [4] relates to primary human atrial fibroblasts. In words: AFM spheroid stiffness, primary human atrial fibroblasts. The format is cell-based. The note with it: 10 μM, 48 h. How it is done:
as §5, §2, §3, §4

In another assay the test system is CAF03 glioblastoma CAFs. In words: AFM spheroid stiffness, CAF03 glioblastoma CAFs. The conditions noted are these: 10 μM, 48 h. In kind it is cell-based.
From the text: as §1, §2, §3, §4

Assay [5] relates to HCA2 hTERT dermal fibroblasts. The experiment in a line: AFM spheroid stiffness, HCA2 hTERT dermal fibroblasts. In kind it is cell-based. The conditions noted are these: HCA2 hTERT normal dermal fibroblasts; 10 μM, 48 h. How it is done: as §5, §2, §3, §4

On to `COc1ccc(C(=O)/C=C/c2ccc(Cl)cc2)cc1` [Compound A2, 3-(4-Chlorophenyl)-1-(4-methoxyphenyl)prop2-en-1-one], for which, in assay [1], the minimal effective concentration stood at 0.01 µM.
The same measure, in the same setting: the same measure for `COc1ccc(C(=O)/C=C/c2ccc(F)cc2)cc1` [Compound A5, 3-(4-Fluorophenyl)-1-(4-methoxyphenyl)prop2-en-1-one]: 1 µM.
`O=C(/C=C/c1ccccc1)c1ccccc1` [Compound A8, 1,3-Diphenvlprop2-en-1-one]: the “Young's modulus / spheroid stiffness” value in the assay on 13B2 hTERT breast CAFs was “did not have an effect”.
In the case of `COc1cc(O)c(C(=O)/C=C/c2ccc(F)cc2)c(OC)c1OC` [Compound A10, 3-(4-Fluorophenyl)-1-(6-hydroxy-2,3,4-trimethoxyphenyl)prop-2-en-1-one], in assay [1], the minimal effective concentration amounted to 0.01 µM.
Still for that read-out and setting: the same measure for `COc1ccc(C(=O)/C=C/c2ccc(F)cc2)c(O)c1` [Compound A12, 3-(4-fluorophenyl)-1-(2-hydroxy-4-methoxyphenyl)prop-2-en-1-one]: 1 µM; for `COc1ccc(C(=O)/C=C/c2ccc(Cl)cc2)c(O)c1` [Compound A13, 3-(4-chlorophenyl)-1-(2-hydroxy-4-methoxyphenyl)prop-2-en-1-one]: 0.1 µM.
Take `COc1ccc(C(=O)/C=C/c2ccc(F)cc2)cc1C(F)(F)F` [Compound A14, 3-(4-Fluorophenyl)-1-(4-methoxy-3-(trifluoromethyl)phenyl)prop-2-en-1-one]: the “Young's modulus / spheroid stiffness” value with 13B2 hTERT breast CAFs is on record as “decreased”.
Regarding `COc1cc2c(=O)cc(-c3ccc(F)cc3)oc2c(OC)c1OC` [Compound B2, 2-(4-Fluorophenyl)-6,7,8-trimethoxy-4H-chromen-4-one], in assay [1], the minimal effective concentration is 10 µM.
`COc1ccc2c(=O)cc(-c3ccc(F)cc3)oc2c1` [Compound B3, 2-(4-Fluorophenyl)-7-methoxy-4H-chromen-4-one]: the minimal effective concentration in assay [1] was found to be 0.01 µM.
For the compound `COc1ccc2c(=O)cc(-c3ccc(Cl)cc3)oc2c1` [Compound B4, 2-(4-Chlorophenyl)-7-methoxy-4H-chromen-4-one], in assay [1], the minimal effective concentration is 0.01 µM.
On the same count and under the same terms, the same measure for `COc1cc2c(c(OC)c1OC)C(=O)CC(c1ccc(F)cc1)O2` (centres unmarked) [Compound B5, 2-(4-Fluorophenyl)-5,6,7-dimethoxychroman-4-one]: 0.1 µM; for `COc1cc2c(c(OC)c1OC)OC(c1ccc(F)cc1)CC2=O` (centres unmarked) [Compound B6, 2-(4-Fluorophenyl)-6,7,8-dimethoxychroman-4-one]: 100 µM; for `COc1ccc2c(c1)OC(c1ccc(F)cc1)CC2=O` (centres unmarked) [Compound B7, 2-(4-Fluorophenvl)-7-methoxvchroman-4-one]: 10 µM.
The same measure, in the same setting: the value for `COc1ccc2c(c1)OC(c1ccc(Cl)cc1)CC2=O` (centres unmarked) [Compound B8, 2-(4-Chlorophenyl)-7-methoxvchroman-4-one] was 0.1 µM.
Take `C[C@@H](N)[C@H]1CC[C@H](C(=O)Nc2ccncc2)CC1` [Compound Y-27632, Y-27632, reference compound]: the spheroid stiffness entry in assay [2] was “reduced the stiffness”; in assay [3], “reduced the stiffness”; in the assay on 13B2 hTERT breast CAFs, “active”; in assay [4] it was “reduced the stiffness”; with CAF03 glioblastoma CAFs, “active”; in assay [5], “reduced the stiffness”.
Take `Cc1ccc2c(c1)C(=O)C1(O)CCN(c3ccccc3)C1=N2` (centres unmarked) [blebbistatin, reference compound]: the spheroid stiffness entry was “reduced the stiffness” in assay [2]; “reduced the stiffness” in assay [3]; “active” in the assay on 13B2 hTERT breast CAFs; “reduced the stiffness” in assay [4]; “active” with CAF03 glioblastoma CAFs; “reduced the stiffness” in assay [5].
For the compound `C=C1[C@@H](C)[C@H]2[C@H](Cc3ccccc3)NC(=O)[C@]23[C@H](OC(C)=O)/C=C/[C@@](C)(O)C(=O)[C@@H](C)C/C=C/[C@H]3[C@@H]1O` [cytochalasin D, reference compound], the spheroid stiffness entry was “reduced the stiffness” in assay [2]; “reduced the stiffness” in assay [3]; “active” in the assay with 13B2 hTERT breast CAFs; “reduced the stiffness” in assay [4]; “active” with CAF03 glioblastoma CAFs; “reduced the stiffness” in assay [5].
